Experimental data from patent US8859608B2, “Spiro amino compounds suitable for the treatment of inter alia sleep disorders and drug addiction” (Rottapharm Biotech S.R.L., priority 2009, dated 2014).

target: T1, human OX1 receptor (Homo sapiens, UniProt O43613); assay: FLIPR measurement of intracellular calcium, antagonistic activity at OX1; details: pKb OX1, CHO cells with human recombinant OX1, activated with orexin-A 3 nM; 1 nM-1 μM range; modified Cheng Prusoff
T1 sequence (O43613 1-425): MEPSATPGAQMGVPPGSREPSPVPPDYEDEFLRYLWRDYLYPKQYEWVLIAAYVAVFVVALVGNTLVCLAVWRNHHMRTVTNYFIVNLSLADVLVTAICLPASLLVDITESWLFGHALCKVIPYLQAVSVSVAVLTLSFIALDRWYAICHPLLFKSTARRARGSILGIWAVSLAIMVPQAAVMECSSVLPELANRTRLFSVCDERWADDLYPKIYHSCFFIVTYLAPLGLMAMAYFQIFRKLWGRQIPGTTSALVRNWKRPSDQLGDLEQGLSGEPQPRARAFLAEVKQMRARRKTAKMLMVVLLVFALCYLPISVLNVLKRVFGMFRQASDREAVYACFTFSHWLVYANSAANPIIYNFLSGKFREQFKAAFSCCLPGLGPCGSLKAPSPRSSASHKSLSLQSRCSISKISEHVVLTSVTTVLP
Procedure: Thus the plate was loaded with the calcium dye (Fluo-4NW/probenecid in HBSS, Hepes 20 mM, pH 7,4; Invitrogen) at 37° C. for 60 min. Afterward the temperature was equilibrated at 22° C. for 15 min and the [Ca2+]i measured directly on the plate by using a fluorescent plate reader (CeliLux Perkin Elmer).
After 5 min CHO cells were activated with orexin-A, 3 nM while HEK-293 cells were activated with orexin-B, 10 nM.
The antagonistic activity has been expressed as pKb (co-logarithm of the apparent dissociation constant calculated by using the modified Cheng Prusoff equation).

| Kb [nM] | SMILES |
| --- | --- |
| 15.8 | O=C(c1cc(F)ccc1-c1ncccn1)N1CCC2(CC2)C[C@H]1CNc1ccc(Cl)cn1 [Compound 44, (S)-(5-(((5-chloropyridin-2-yl)amino)methyl)-6-azaspiro[2.5]octan-6-yl)(5-fluoro-2-(pyrimidin-2-yl)phenyl)methanone] |
| 63.1 | Cc1cccc(NCC2CC3(CCCC3)CCN2C(=O)c2nc(C)sc2-c2ccccc2)n1 (racemic) [Compound 54, (±)(2-methyl-5-phenylthiazol-4-yl)(7-(((6-methylpyridin-2-4amino)methyl)-8-azaspiro[4.5]decan-8-yl)methanone] |
| 25.1 | Cc1ccc(-n2nccn2)c(C(=O)N2CCC3(CC3)C[C@H]2CNc2ccc(C(F)(F)F)cn2)c1 [Compound 26, (S)-(5-methyl-2-(2H-1,2,3-triazol-2-yl)phenyl)(5-(((5-(trifluoromethyl)pyridin-2-yl)amino)methyl)-6-azaspiro[2.5]octan-6-yl)methanone] |
| 31.6 | O=C(c1cc(F)ccc1-n1nccn1)N1CCC2(CC2)C[C@H]1CNc1ccc(Cl)cn1 [Compound 29, (S)-(5-(((5-chloropyridin-2-yl)amino)methyl)-6-azaspiro[2.5]octan-6-yl)(5-fluoro-2-(2H-1,2,3-triazol-2-yl)phenyl)methanone] |
| 50.1 | Cc1cnc(NC[C@@H]2CC3(CCN2C(=O)c2nc(C)sc2-c2ccccc2)CC3)nc1 [Compound 23, (S)-(2-methyl-5-phenylthiazol-4-yl)(5-(((5-methylpyrimidin-2-yl)amino)methyl)-6-azaspiro[2.5]octan-6-yl)methanone] |
| 10 | O=C(c1c(F)cccc1-c1ncccn1)N1CCC2(CC2)C[C@H]1CNc1ccc(Cl)cn1 [Compound 45, (S)-(5-(((5-chloropyridin-2-yl)amino)methyl)-6-azaspiro[2.5]octan-6-yl)(2-fluoro-6-(pyrimidin-2-yl)phenyl)methanone] |
| 39.8 | Cc1nc(C(=O)N2CCC3(CC3)C[C@H]2CNc2cccc(F)n2)c(-c2ccccc2)s1 [Compound 25, (S)-(5-(((6-fluoropyridin-2-yl)amino)methyl)-6-azaspiro[2.5]octan-6-yl)(2-methyl-5-phenylthiazol-4-yl)methanone] |
| 63.1 | Cc1nc(C(=O)N2CCC3(CC3)C[C@H]2CNc2ccc(F)cn2)c(-c2ccccc2)s1 [Compound 16, (S)-(5-(((5-fluoropyridin-2-yl)amino)methyl)-6-azaspiro[2.5]octan-6-yl)(2-methyl-5-phenylthiazol-4-yl)methanone] |
| 63.1 | O=C(c1ccccc1-c1cnccn1)N1CCC2(CC2)C[C@H]1CNc1ccc(Cl)cn1 [Compound 30, (S)-(5-(((5-chloropyridin-2-yl)amino)methyl)-6-azaspiro[2.5]octan-6-yl)(2-(pyrazin-2-yl)phenyl)methanone] |
| 12.6 | Cc1ccc(-c2ncccn2)c(C(=O)N2CCC3(CC3)C[C@H]2CNc2ccc(C(F)(F)F)cn2)c1 [Compound 27, (S)-(5-methyl-2-(pyrimidin-2-yl)phenyl)(5-(((5-(trifluoromethyl)pyridin-2-yl)amino)methyl)-6-azaspiro[2.5]octan-6-yl)methanone] |
| 25.1 | Cc1ccc(-c2cnccn2)c(C(=O)N2CCC3(CC3)C[C@H]2CNc2cccc(Cl)n2)c1 [Compound 42, (S)-(5-(((6-chloropyridin-2-yl)amino)methyl)-6-azaspiro[2.5]octan-6-yl)(5-methyl-2-(pyrazin-2-yl)phenyl)methanone] |
| 25.1 | Cc1ccc(-c2ncccn2)c(C(=O)N2CCC3(CC3)C[C@H]2CNc2ccc(Cl)cn2)c1 (single isomer, unassigned) [Compound 13] |
| 15.8 | O=C(c1c(F)cccc1-n1nccn1)N1CCC2(CC2)C[C@H]1CNc1ccc(Cl)cn1 [Compound 31, (S)-(5-(((5-chloropyridin-2-yl)amino)methyl)-6-azaspiro[2.5]octan-6-yl)(2-fluoro-6-(2H-1,2,3-triazol-2-yl)phenyl)methanone] |
| 31.6 | O=C(c1ccccc1-c1ncccn1)N1CCC2(CC2)C[C@H]1CNc1ccc(Cl)cn1 [Compound 40, (S)-(5-(((5-chloropyridin-2-yl)amino)methyl)-6-azaspiro[2.5]octan-6-yl)(2-(pyrimidin-2-yl)phenyl)methanone] |
| 126 | Cc1ccc(-n2nccn2)c(C(=O)N2CCC3(CC3)C[C@H]2CNc2cccc(Cl)n2)c1 [Compound 19, (S)-(5-(((6-chloropyridin-2-yl)amino)methyl)-6-azaspiro[2.5]octan-6-yl)(5-methyl-2-(2H-1,2,3-triazol-2-yl)phenyl)methanone] |
| 100 | Cc1nc(C(=O)N2CCC3(CC3)C[C@H]2CNc2nc(F)cc(F)n2)c(-c2ccccc2)s1 [Compound 24, (S)-(5-(((4,6-difluoropyrimidin-2-yl)amino)methyl)-6-azaspiro[2.5]octan-6-yl)(2-methyl-5-phenylthiazol-4-yl)methanone] |
| 39.8 | Cc1nc(C(=O)N2CCC3(CCCC3)CC2CNc2ccc(Cl)cn2)c(-c2ccccc2)s1 (racemic) [Compound 55, (±)(7-(((5-chloropyridin-2-yl)amino)methyl)-8-azaspiro[4.5]decan-8-yl)(2-methyl-5-phenylthiazol-4-yl)methanone] |
| 63.1 | Cc1ccc(-c2ncccn2)c(C(=O)N2CCC3(CC3)C[C@H]2CNc2cccc(Cl)n2)c1 [Compound 41, (S)-(5-(((6-chloropyridin-2-yl)amino)methyl)-6-azaspiro[2.5]octan-6-yl)(5-methyl-2-(pyrimidin-2-yl)phenyl)methanone] |
| 50.1 | Cc1ccc(-n2nccn2)c(C(=O)N2CCC3(CC3)C[C@H]2CNc2cccc(C(F)(F)F)n2)c1 [Compound 20, (S)-(5-methyl-2-(2H-1,2,3-triazol-2-yl)phenyl)(5-(((6-(trifluoromethyl)pyridin-2-yl)amino)methyl)-6-azaspiro[2.5]octan-6-yl)methanone] |
| 31.6 | Cc1ccc(-n2nccn2)c(C(=O)N2CCC3(CC3)CC2CNc2ccc(Cl)cn2)c1 (racemic) [Compound 11, (±)(5-((5-chloropyridin-2-ylamino)methyl)-6-azaspiro[2.5]octan-6-yl)(5-methyl-2-(2H-1,2,3-triazol-2-yl)phenyl)methanone] |
| 39.8 | Cc1nc(C(=O)N2CCC3(CC3)CC2CNc2ccc(Cl)cn2)c(-c2ccc(F)cc2)s1 (racemic) [Compound 10, (±) (5-((5-chloropyridin-2-ylamino)methyl)-6-azaspiro[2.5]octan-6-yl)(5-(4-fluorophenyl)-2-methylthiazol-4-yl)methanone] |
| 20 | O=C(c1c(F)cccc1-c1ccccn1)N1CCC2(CC2)C[C@H]1CNc1ccc(Cl)cn1 [Compound 34, (S)-(5-(((5-chloropyridin-2-yl)amino)methyl)-6-azaspiro[2.5]octan-6-yl)(2-fluoro-6-(pyridin-2-yl)phenyl)methanone] |
| 126 | Cc1ccnc(NC[C@@H]2CC3(CCN2C(=O)c2nc(C)sc2-c2ccccc2)CC3)n1 [Compound 21, (S)-(2-methyl-5-phenylthiazol-4-yl)(5-(((4-methylpyrimidin-2-yl)amino)methyl)-6-azaspiro[2.5]octan-6-yl)methanone] |
| 1.58 | Cc1ccc(-c2ccccn2)c(C(=O)N2CCC3(CC3)C[C@H]2CNc2ccc(Cl)cn2)c1 [Compound 33, (S)-(5-(((5-chloropyridin-2-yl)amino)methyl)-6-azaspiro[2.5]octan-6-yl)(5-methyl-2-(pyridin-2-yl)phenyl)methanone] |
| 25.1 | O=C(c1ccccc1-n1nccn1)N1CCC2(CC2)C[C@H]1CNc1ccc(Cl)cn1 [Compound 28, (S)-(2-(2H-1,2,3-triazol-2-yl)phenyl)(5-(((5-chloropyridin-2-yl)amino)methyl)-6-azaspiro[2.5]octan-6-yl)methanone] |
| 63.1 | O=C(c1cc(F)ccc1-c1ccccn1)N1CCC2(CC2)C[C@H]1CNc1ccc(Cl)cn1 [Compound 32, (S)-(5-(((5-chloropyridin-2-yl)amino)methyl)-6-azaspiro[2.5]octan-6-yl)(5-fluoro-2-(pyridin-2-yl)phenyl)methanone] |
| 25.1 | Cc1nc(C(=O)N2CCC3(CC3)CC2CNc2ccc(Cl)cn2)c(-c2ccccc2)s1 (racemic) [Compound 4, (±) (5-((5-chloropyridin-2-ylamino)methyl)-6-azaspiro[2.5]octan-6-yl)(2-methyl-5-phenylthiazol-4-yl)methanone] |
| 20 | O=C(c1ccccc1-c1ccccc1)N1CCC2(CC2)C[C@H]1CNc1ccc(Cl)cn1 [Compound 38, (S)-[1,1′-biphenyl]-2-yl(5-(((5-chloropyridin-2-yl)amino)methyl)-6-azaspiro[2.5]octan-6-yl)methanone] |
| 10 | Cc1ccc(-c2cnccn2)c(C(=O)N2CCC3(CC3)C[C@H]2CNc2cccc(C(F)(F)F)n2)c1 [Compound 43, (S)-(5-methyl-2-(pyrazin-2-yl)phenyl)(5-(((6-(trifluoromethyl)pyridin-2-yl)amino)methyl)-6-azaspiro[2.5]octan-6-yl)methanone] |
| 50.1 | Cc1ccc(-c2ncccn2)c(C(=O)N2CCC3(CC3)CC2CNc2ccc(Cl)cn2)c1 (racemic) [Compound 12, (±)(5-((5-chloropyridin-2-ylamino)methyl)-6-azaspiro[2.5]octan-6-yl)(5-methyl-2-(pyrimidin-2-yl)phenyl)methanone] |

| SMILES | Kb [nM] |
| --- | --- |
| Cc1cccc(NCC2CC3(CCN2C(=O)c2nc(C)sc2-c2ccccc2)CC3)n1 (single isomer, unassigned) [Compound 3, (2-methyl-5-phenylthiazol-4-yl)(5-((6-methylpyridin-2-ylamino)methyl)-6-azaspiro[2.5]octan-6-yl)methanone] | 39.8 |
